Measured values from paper PMC4870302, “In Vitro and In Vivo Comparison of Selected Ga-68 and Zr-89 Labelled Siderophores” (Molecular Imaging and Biology, 2015).

Assays:
[1] = Protein binding in fresh human serum (size-exclusion MicroSpin G-50); type: in vitro ADME; settings: for Protein binding (%) (mean, n = 2): 37 °C; for protein binding: after 24-h incubation period
Description: Protein binding studies were performed by incubating radiolabelled siderophore (1–2 μg/150 μl) in fresh human serum (850 μl) and in PBS (850 μl) (control) at 37 °C for various time points (30, 60 and 120 min for [^68Ga]siderophores and 1, 4 and 24 h for [^89Zr]siderophores). After incubation, 25 μl of the sample was separated by size-exclusion chromatography (MicroSpin™ G-50 Columns; Sephadex G-50 (GE Healthcare, Buckinghamshire, UK)) by centrifugation at 2000×g for 2 min. Protein binding of radiolabelled siderophores was determined by measuring the activity distributed between the column (non protein-bound) and the eluate (protein-bound) using the automatic gamma counter.

[2] = In vitro stability in fresh human serum (RP-HPLC); type: in vitro ADME; settings: for Stability in human serum (%) (n = 1): 37 °C; for in vitro stability (in words): human serum and 6 mM DTPA, all examined media
Description: […] After incubation, human serum samples were precipitated with acetonitrile or ethanol, centrifuged (2200×g, 3 min) and the supernatant analyzed. Degradation of the radiolabelled siderophore complexes was evaluated by RP-HPLC. Samples of the DTPA solutions were directly injected onto the HPLC.

[3] = In vitro stability in 6 mM DTPA solution pH 7 (RP-HPLC); type: physicochemical; settings: 6 mM DTPA pH 7, 37 °C
Description: The in vitro stability of radiolabelled siderophores (3–6 μg/100 μl) was tested in fresh human serum (300 μl) and a 6 mM solution of diethylenetriaminepentaacetic acid (DTPA) pH = 7 (100 μl) at 37 °C at several time points (30, […]). After incubation, human serum samples were precipitated with acetonitrile or ethanol, centrifuged (2200×g, 3 min) and the supernatant analyzed. Degradation of the radiolabelled siderophore complexes was evaluated by RP-HPLC. Samples of the DTPA solutions were directly injected onto the HPLC.

[4] = Partition coefficient determination (octanol/PBS pH 7.4); type: physicochemical
Description: Radiolabelled siderophore in 0.5 ml phosphate-buffered saline (PBS) pH = 7.4 was added to 0.5 ml octanol and the mixture was vigorously vortexed for 15 min. The aqueous and organic solvents were separated by centrifugation and 50 μl aliquots of both layers were collected and measured in the automatic gamma counter (WIZARD^2; PerkinElmer, Waltham, USA). Log P values were calculated from obtained data (mean of n = 6).

[5] = Ex vivo biodistribution in Balb/c mice; settings: r.o. injection, 30 and 90 min p.i.
Description: Biodistibution of radiolabelled siderophores was studied in female Balb/c mice (8 weeks old). Ga-68 and Zr-89 labelled siderophores (1–2 MBq/mouse, corresponding to 0.1–0.2 μg of siderophore per mouse) were injected retro-orbitally (r.o.). Animals were sacrificed by cervical dislocation 30 and 90 min post-injection (p.i.). Organs and tissues (blood, spleen, pancreas, stomach, intestine, kidneys, liver, heart, lung, muscle and femur) were removed and weighed. The amount of radioactivity in the samples was measured in an automatic gamma counter. Results were expressed as percentage of injected dose per gram organ (%ID/g).

[6] = Small animal PET/CT imaging in Balb/c mice; type: in vivo; settings: r.o. injection, 5-10 MBq
Description: PET and computed tomography (CT) images were acquired with an Albira PET/SPECT/CT small animal imaging system (Bruker Biospin Corporation, Woodbridge, CT, USA). Female Balb/c mice were r.o. injected with radiolabelled siderophores in a dose of 5–10 MBq corresponding to 0.5–1 μg of siderophore per mouse. Animals were anaesthetized with isoflurane (FORANE, Abbott Laboratories, Abbott Park, IL, USA) (2 % flow rate) and positioned prone head first in the Albira system before the start of imaging. Static PET/CT imaging was carried out 5, 30 and 90 min p.i. for both Ga-68 and Zr-89 labelled siderophores. Animals injected with [^89Zr]siderophores were also imaged 4 h p.i. A 5-min PET scan (axial FOV 148 mm) was performed, followed by a CT scan (axial FOV 65 mm, 45 kVp, 400 μA, at 600 projections). Dynamic imaging was carried out immediately after the injection of radiolabelled siderophore for 90 min (5 min PET scan per frame). Scans were reconstructed with the Albira software (Bruker Biospin Corporation, Woodbridge, CT, USA) using the maximum likelihood expectation maximization (MLEM) and filtered backprojection (FBP) algorithms. After reconstruction, acquired data was viewed and analyzed with PMOD software (PMOD Technologies Ltd., Zurich, Switzerland). 3D images were obtained using VolView software (Kitware, Clifton Park, NY, USA). […]

[7] = Protein binding in fresh human serum (size-exclusion MicroSpin G-50); type: in vitro ADME; settings: 37 °C

| Compound | Protein binding (%) (mean, n = 2) ([1]; incubation time 30 min) | Protein binding (%) (mean, n = 2) ([1]; incubation time 60 min) | Protein binding (%) (mean, n = 2) ([1]; incubation time 120 min) | Stability in human serum (%) (n = 1) ([2]; incubation time 30 min) | Stability in human serum (%) (n = 1) ([2]; incubation time 60 min) | Stability in human serum (%) (n = 1) ([2]; incubation time 120 min) | in vitro stability (in words) [2] | Stability in DTPA solution (%) (n = 1) ([3]; incubation time 30 min) | Stability in DTPA solution (%) (n = 1) ([3]; incubation time 60 min) | Stability in DTPA solution (%) (n = 1) ([3]; incubation time 120 min) | Log P (mean ± SD, n = 6) ([4]; Ga-68 labelled) | Protein binding (%) (mean, n = 2) [7]; 1 | Protein binding (%) (mean, n = 2) [7]; 24 | Stability in human serum (%) (n = 1) ([2]; Incubation time (min) 4) | Stability in human serum (%) (n = 1) ([2]; incubation time 24 h) | Stability in DTPA solution (%) (n = 1) ([3]; Incubation time (min) 1) | Stability in DTPA solution (%) (n = 1) ([3]; Incubation time (min) 4) | Stability in DTPA solution (%) (n = 1) ([3]; Incubation time (min) 24) | Log P (mean ± SD, n = 6) ([4]; Zr-89 labelled) | further results |
| --- | --- | --- | --- | --- | --- | --- | --- | --- | --- | --- | --- | --- | --- | --- | --- | --- | --- | --- | --- | --- |
| O=C1CCC(=O)N([O-])CCCCCNC(=O)CCC(=O)N([O-])CCCCCNC(=O)CCC(=O)N([O-])CCCCCN1.[68Ga+3] [[^68Ga]FOXE, [^68Ga]ferrioxamine E] | 0.27 | 0.24 | 0.53 | 99.9 | 99.9 | 99.9 |  | 94.3 | 93.8 | 93.2 | −1.65 ± 0.03 |  |  |  |  |  |  |  |  | ex vivo biodistribution (in words) [5]: slightly higher radioactivity values in gastrointestinal tract; kinetics and excretion route in PET imaging (in words) [6]: quickly eliminated mainly via the kidneys |
| CC(=O)NC1CCCN([O-])C(=O)C=C(C)CCOC(=O)C(NC(C)=O)CCCN([O-])C(=O)C=C(C)CCOC(=O)C(NC(C)=O)CCCN([O-])C(=O)C=C(C)CCOC1=O.[68Ga+3] (centres unmarked) [[^68Ga]TAFC, [^68Ga]triacetylfusarinine C] | 0.47 | 0.76 | 1.21 | 99.9 | 99.9 | 99.9 |  | 85.0 | 84.7 | 81.8 | −2.59 ± 0.15 |  |  |  |  |  |  |  |  |  |
| CC(=CC(=O)N([O-])CCCC1NC(=O)CNC(=O)C(CO)NC(=O)C(CO)NC(=O)C(CCCN([O-])C(=O)C=C(C)C(=O)O)NC(=O)C(CCCN([O-])C(=O)C=C(C)C(=O)O)NC1=O)C(=O)O.[89Zr+4] (centres unmarked) [[^89Zr]FCHA] |  |  |  |  |  |  | less stable as compared to its Ga-68 labelled counterpart |  |  |  |  | 2.70 | 31.05 | 85.42 | 77.38 | 68.70 | 65.27 | 54.22 | −3.28 ± 0.37 | protein binding [1]: 31.1% |
| O=C1CCC(=O)N([O-])CCCCCNC(=O)CCC(=O)N([O-])CCCCCNC(=O)CCC(=O)N([O-])CCCCCN1.[89Zr+4] [[^89Zr]FOXE, [^89Zr]ferrioxamine E] |  |  |  |  |  |  |  |  |  |  |  | 3.27 | 16.59 | 99.70 | 98.34 | 99.70 | 99.50 | 99.70 | −1.91 ± 0.04 | ex vivo biodistribution (in words) [5]: significantly higher radioactivity accumulation in the intestines and liver; kinetics and excretion route in PET imaging (in words) [6]: much slower kinetics and significant hepatobiliary elimination; protein binding [1]: 16.6% |
| CC(=O)NC1CCCN([O-])C(=O)C=C(C)CCOC(=O)C(NC(C)=O)CCCN([O-])C(=O)C=C(C)CCOC(=O)C(NC(C)=O)CCCN([O-])C(=O)C=C(C)CCOC1=O.[89Zr+4] (centres unmarked) [[^89Zr]TAFC, [^89Zr]triacetylfusarinine C] |  |  |  |  |  |  |  |  |  |  |  | 0.99 | 1.37 | 98.72 | 98.50 | 99.51 | 99.50 | 99.50 | −1.95 ± 0.03 |  |

Continued, in another order:

| Protein binding (%) (mean, n = 2) ([1]; incubation time 30 min) | Protein binding (%) (mean, n = 2) ([1]; incubation time 60 min) | Protein binding (%) (mean, n = 2) ([1]; incubation time 120 min) | Stability in human serum (%) (n = 1) ([2]; incubation time 30 min) | Stability in human serum (%) (n = 1) ([2]; incubation time 60 min) | Stability in human serum (%) (n = 1) ([2]; incubation time 120 min) | in vitro stability (in words) [2] | Stability in DTPA solution (%) (n = 1) ([3]; incubation time 30 min) | Stability in DTPA solution (%) (n = 1) ([3]; incubation time 60 min) | Stability in DTPA solution (%) (n = 1) ([3]; incubation time 120 min) | Log P (mean ± SD, n = 6) ([4]; Ga-68 labelled) | Protein binding (%) (mean, n = 2) [7]; 1 | Protein binding (%) (mean, n = 2) [7]; 24 | Stability in human serum (%) (n = 1) ([2]; Incubation time (min) 4) | Stability in human serum (%) (n = 1) ([2]; incubation time 24 h) | Stability in DTPA solution (%) (n = 1) ([3]; Incubation time (min) 1) | Stability in DTPA solution (%) (n = 1) ([3]; Incubation time (min) 4) | Stability in DTPA solution (%) (n = 1) ([3]; Incubation time (min) 24) | Log P (mean ± SD, n = 6) ([4]; Zr-89 labelled) | Compound | further results |
| --- | --- | --- | --- | --- | --- | --- | --- | --- | --- | --- | --- | --- | --- | --- | --- | --- | --- | --- | --- | --- |
| 7.67 | 10.29 | 10.83 | 74.1 | 72.0 | 75.4 | pronounced in vitro instability | 60.1 | 54.5 | 52.9 | −3.56 ± 0.17 |  |  |  |  |  |  |  |  | CC(=O)N([O-])CCCCCNC(=O)CCC(=O)N([O-])CCCCCNC(=O)CCC(=O)N([O-])CCCCCN.[68Ga+3] [[^68Ga]FOXB] |  |
|  |  |  |  |  |  | higher stability in all examined media |  |  |  |  | 1.63 | 1.84 | 99.70 | 99.53 | 91.56 | 90.39 | 87.10 | −3.01 ± 0.07 | CC(=O)N([O-])CCCCCNC(=O)CCC(=O)N([O-])CCCCCNC(=O)CCC(=O)N([O-])CCCCCN.[89Zr+4] [[^89Zr]FOXB] |  |
